# Where two headings read alike, the source gives them in different places.
# B1: BMP-7: member of the BMP family (protein, UniProt P18075 293-431, looked up)
# Bone morphogenetic protein 7: STGSKQRSQNRSKTPKNQEALRMANVAENSSSDQRQACKKHELYVSFRDLGWQDWIIAPEGYAAYYCEGECAFPLNSYMNATNHAIVQTLVHFINPETVPKPCCAPTQLNAISVLYFDDSSNVILKKYRNMVVRACGCH
# B2: FGF4: growth factor purchased from R&D Systems (protein, UniProt P08620 31-206, looked up)
# Fibroblast growth factor 4: APTAPNGTLEAELERRWESLVALSLARLPVAAQPKEAAVQSGAGDYLLGIKRLRRLYCNVGIGFHLQALPDGRIGGAHADTRDSLLELSPVERGVVSIFGVASRFFVAMSSKGKLYGSPFFTDECTFKEILLPNNYNAYESYKYPGMFIALSKNGKTKKGNRVSPTMKVTHFLPRL
# B3: BMP-1: member of the BMP family, R&D Systems (protein, UniProt P13497 121-986, looked up)
# Bone morphogenetic protein 1: AATSRPERVWPDGVIPFVIGGNFTGSQRAVFRQAMRHWEKHTCVTFLERTDEDSYIVFTYRPCGCCSYVGRRGGGPQAISIGKNCDKFGIVVHELGHVVGFWHEHTRPDRDRHVSIVRENIQPGQEYNFLKMEPQEVESLGETYDFDSIMHYARNTFSRGIFLDTIVPKYEVNGVKPPIGQRTRLSKGDIAQARKLYKCPACGETLQDSTGNFSSPEYPNGYSAHMHCVWRISVTPGEKIILNFTSLDLYRSRLCWYDYVEVRDGFWRKAPLRGRFCGSKLPEPIVSTDSRLWVEFRSSSNWVGKGFFAVYEAICGGDVKKDYGHIQSPNYPDDYRPSKVCIWRIQVSEGFHVGLTFQSFEIERHDSCAYDYLEVRDGHSESSTLIGRYCGYEKPDDIKSTSSRLWLKFVSDGSINKAGFAVNFFKEVDECSRPNRGGCEQRCLNTLGSYKCSCDPGYELAPDKRRCEAACGGFLTKLNGSITSPGWPKEYPPNKNCIWQLVAPTQYRISLQFDFFETEGNDVCKYDFVEVRSGLTADSKLHGKFCGSEKPEVITSQYNNMRVEFKSDNTVSKKGFKAHFFSDKDECSKDNGGCQQDCVNTFGSYECQCRSGFVLHDNKHDCKEAGCDHKVTSTSGTITSPNWPDKYPSKKECTWAISSTPGHRVKLTFMEMDIESQPECAYDHLEVFDGRDAKAPVLGRFCGSKKPEPVLATGSRMFLRFYSDNSVQRKGFQASHATECGGQVRADVKTKDLYSHAQFGDNNYPGGVDCEWVIVAEEGYGVELVFQTFEVEEETDCGYDYMELFDGYDSTAPRLGRYCGSGPPEEVYSAGDSVLVKFHSDDTITKKGFHLRYTSTKFQDTLHSRK
# B4: BMP-6: member of the BMP family, R&D Systems (protein, UniProt P22004 375-513, looked up)
# Bone morphogenetic protein 6: SASSRRRQQSRNRSTQSQDVARVSSASDYNSSELKTACRKHELYVSFQDLGWQDWIIAPKGYAANYCDGECSFPLNAHMNATNHAIVQTLVHLMNPEYVPKPCCAPTKLNAISVLYFDDNSNVILKKYRNMVVRACGCH
# Legend:
# [1] = tested on: H1 human embryonic stem cells; experiment: Secondary assay: compound combined with individual growth factors or small molecules, no activin A (Example 5, Table 4); format: cell-based; conditions: for increase in SOX17 expression (% of the activin A/Wnt3a control): growth factor 50 ng/ml combined with 2.5 μM compound and Wnt3a
# Method: Clusters of H1 human embryonic stem cells were grown on reduced growth factor […]™ (Invitrogen; Cat #356231)-coated tissue culture plastic. Cells were passaged using collagenase (Invitrogen; Cat #Cat #17104-019) treatment and gentle scraping, washed to remove residual enzyme, and plated with even dispersal at a ratio of 1:1 (surface area) on reduced growth factor […]™-coated 96-well black plates (Packard ViewPlates; PerkinElmer; Cat #6005182) using volumes of 100 μl/well. Cells were allowed to attach as clusters and then recover log phase growth over a 1 to 3 day period, feeding daily with MEF conditioned medium supplemented with 8 ng/ml bFGF (R&D Systems; Cat #233-FB). Plates were maintained at 37° C., 5% CO2 in a humidified box throughout the duration of assay.
# Other agents tested were purchased as follows: BMP-7 (Sigma; Cat #B1434), LY294002 (Cayman; Cat 70920), PD98059, U0126, U0124 (EMD Biosciences; Cat #453710), muscimol (Tocris; Cat #0289), biuculline (Tocris; Cat #0130), sodium butyrate (Sigma; Cat #B5887). All growth factors were solubilized in PBS with 0.1% BSA (Sigma; Cat #A7888) and stored frozen at −80° C. Small molecules were solubilized in 100% DMSO (Sigma; Cat #D2650) and stored frozen at −80° C. The compounds were available as 5 mM stocks in 96-well plate format, solubilized in 100% DMSO and stored at −80° C. The compounds of the present invention were further diluted to an intermediate concentration of 0.2 mM in 50 mM HEPES (Invitrogen; Cat #15630-080), 20% DMSO and stored at 4° C. All growth factors and inhibitors were prepared in a deep well, 96-well polypropylene plate, diluted to 5× intermediate stocks in DMEM:F12 base medium at the beginning of assay and stored at 4° C.
# A secondary screening assay was conducted, testing in triplicate and feeding on alternate days over the four-day assay timeframe. Assays were initiated by aspirating culture medium from each well followed by three washes in PBS to remove residual growth factors and serum. Test volumes of 80 μl per well were added back containing DMEM:F12 base medium (Invitrogen; Cat #11330-032) supplemented with 0.625% FCS (HyClone; Cat #SH30070.03), 25 ng/ml Wnt3a (R&D Systems), and 3.125 μM compound plus 20 μl 5× stock of growth factor or small molecule to yield a final concentration of 0.5% FCS, 20 ng/ml Wnt3a, and 2.5 μM compound. […] Final assay concentrations of small molecules tested were as follows: muscimol (20 μM), PD98059 (1 μM), LY294002 (2.5 μM), 00124 (1 μM), U0126 (1 μM), sodium butyrate (0.5 mM). Positive control wells (100 μl/well) contained the same base medium supplemented with 0.5% FCS, 20 ng/ml Wnt3a and 100 ng/ml activin A. Negative control wells (100 μl/well) contained the same base medium with 0.5% FCS and 20 ng/ml Wnt3a, omitting activin A.
# On day 3, wells were aspirated and fed with 80 μl DMEM:F12 base medium supplemented with 2.5% FCS (HyClone) and 3.125 μM cyclic aniline-pyridinotriazine compound plus 20 μl 5× stock of growth factors or small molecules per well to yield a final concentration of 2% FCS and 2.5 μM compound (omitting Wnt3a) and as denoted on day one for all remaining growth factors or small molecules. Positive control wells (100 μl/well) contained the same base medium supplemented with 2% FCS and 100 ng/ml activin A, omitting Wnt3a. Negative control wells (100 μl/well) contained the same base medium with 2% FCS, omitting both activin A and Wnt3a.
# At the conclusion of four-days of culture, assay plates were washed twice with PBS, fixed with 4% paraformaldehyde (Alexis Biochemical; Cat #ALX-350-011) at room temperature for 20 minutes, then washed three times with PBS and permeabilized with 0.5% Triton X-100 (Sigma; Cat #T8760-2) for 20 minutes at room temperature. Cells were washed again three times with PBS and blocked with 4% chicken serum (Invitrogen; Cat #16110082) in PBS for 30 minutes at room temperature.
# [2] = tested on: H1 human embryonic stem cells; experiment: Analogue screening in combination with only GDF-8, SOX17 (Example 21, Tables 18 and 19); format: cell-based; parameters: Sox17 Expression: % of positive control / Cell Number: % of positive control: tested at 2.5 µM; conditions: compound in combination with GDF8
# Method: Briefly, clusters of H1 human embryonic stem cells were grown on reduced growth factor Matrigel™ (Invitrogen; Cat #356231)-coated tissue culture plastic. Cells were passaged using collagenase (Invitrogen; Cat #17104-019) treatment and gentle scraping, washed to remove residual enzyme, and plated with even dispersal at a ratio of 1:1 (surface area) on reduced growth factor […]™ (BD Biosciences; Cat #356231)-coated 96-well black plates (Packard ViewPlates; PerkinElmer; Cat #6005182) using volumes of 100 μl/well. Cells were allowed to attach and then recover log phase growth over a 1 to 3 day time period, feeding daily with MEF conditioned medium supplemented with 8 ng/ml bFGF (R&D Systems; Cat #233-FB). Plates were maintained at 37° C., 5% CO2 in a humidified box throughout the duration of assay.
# Screening was conducted using a library of the analogue compounds. Compounds from this library were made available as 5 mM stocks in 96-well plate format, solubilized in 100% DMSO (Sigma; Cat #D2650) and stored at −80° C. The library compounds were further diluted to an intermediate concentration of 0.2 mM in 50 mM HEPES (Invitrogen; Cat #15630-080), 20% DMSO and stored at 4° C. Test conditions were performed in triplicate, feeding on alternating days over a four-day assay period. Assays were initiated by aspirating culture medium from each well followed by three washes in PBS (Invitrogen; Cat #14190) to remove residual growth factors. On the first day of assay, test volumes of 200 μl per well were added to each well using DMEM:F12 base medium (Invitrogen; Cat #11330-032) supplemented with 0.5% FCS (HyClone; Cat #SH30070.03) and 200 ng/ml GDF-8 (R&D Systems, Cat #788-G8) plus 2.5 μM compound. On the third day of assay, test volumes of 100 μl per well were added to each well using DMEM:F12 base medium supplemented with 2% FCS plus 200 ng/ml GDF-8 (R&D Systems, Cat #788-G8). Positive control samples contained the same base medium supplemented with FCS and 1000 ng/ml recombinant human activin A (PeproTech; Cat #120-14) throughout the four-day assay along with Wnt3a (20 ng/ml) on days 1 and 2. Negative control samples contained DMEM:F12 base medium supplemented with FCS, adding Wnt3a on days 1 and 2 but omitting treatment with activin A.
# At the conclusion of four-days of culture, assay plates were washed twice with PBS (Invitrogen; Cat #14190), fixed with 4% paraformaldehyde (Alexis Biochemical; Cat #ALX-350-011) at room temperature for 20 minutes, then washed three times with PBS and permeabilized with 0.5% Triton X-100 (Sigma; Cat #T8760-2) for 20 minutes at room temperature. Cells were washed again three times with PBS and blocked with 4% chicken serum (Invitrogen; Cat #16110082) in PBS for 30 minutes at room temperature. Primary antibody (goat anti-human SOX17; R&D Systems; Cat #AF1924) was diluted 1:100 in 4% chicken serum and added to each well for one hour at room temperature. Alexa Fluor 488 conjugated secondary antibody (chicken anti-goat IgG; Molecular Probes; Cat #AZ1467) was diluted 1:200 in PBS and added to each sample well after washing three times with PBS. To counterstain nuclei, 4 μg/ml Hoechst 33342 (Invitrogen; Cat #H3570) was added for ten minutes at room temperature. Plates were washed once with PBS and left in 100 μl/well PBS for imaging.
# Imaging was performed using an IN Cell Analyzer 1000 (GE Healthcare) utilizing the 51008bs dichroic for cells stained with Hoechst 33342 and Alexa Fluor 488. Exposure times were optimized from positive control wells and from untreated negative control wells stained with secondary antibody alone. Images from 15 fields per well were acquired to compensate for any cell loss during the bioassay and subsequent staining procedures. Measurements for total cell number and total SOX17 intensity were obtained from each well using IN Cell Developer Toolbox 1.7 (GE Healthcare) software. […]
# [3] = relative to Activin A/Wnt3a of the same plate
# [4] = agent combined with 2.5 μM compound and Wnt3a, no activin A
molecule,measurement,setting,value
VEGF,increase in SOX17 expression (% of the activin A/Wnt3a control),[1]; no activin A,18%
"CC(C)(C)OC(=O)NCCCCc1cc(-c2ncnc(Nc3cccc(CO)c3)n2)ccn1 [Compound 4, 1,1-Dimethylethyl {4-[4-(4-{[3-(hydroxymethyl)phenyl]amino}-1,3,5-triazin-2-yl)pyridin-2-yl]butyl}carbamate]",Cell Number: Average Total Cell Number,[2]; four assay plates,3163
same,Sox17 Expression: Average Total Intensity,[2]; four assay plates,1.58E+07
same,Cell Number: % of positive control,[2]; [3],20.7%
same,Sox17 Expression: % of positive control,[2]; [3],4.7%
"NCc1cc(=O)[nH]o1 [muscimol, reference compound]",effect on SOX17 expression,[1]; [4],modest increase in SOX17 expression
"CCCC(=O)[O-].[Na+] [sodium butyrate, reference compound]",effect on SOX17 expression,[1]; [4],inhibited or had negligible effects on SOX17 expression
"N#CC(=C(/N)Sc1ccccc1N)/C(C#N)=C(\N)Sc1ccccc1N [Compound U0126, U0126, reference compound]",effect on SOX17 expression,[1],inhibited or had negligible effects on SOX17 expression
"COc1cccc(-c2cc(=O)c3ccccc3o2)c1N [PD98059, reference compound]",effect on SOX17 expression,[1]; [4],inhibited or had negligible effects on SOX17 expression
"CS/C(N)=C(C#N)/C(C#N)=C(\N)SC [Compound U0124, U0124, reference compound]",effect on SOX17 expression,[1]; [4],inhibited or had negligible effects on SOX17 expression
B1,effect on SOX17 expression,[1]; [4],inhibited or had negligible effects on SOX17 expression
B2,retention of cell numbers,"[1]; 50 ng/ml combined with 2.5 μM compound and Wnt3a, no activin A",not able to support retention of cell numbers
same,increase in SOX17 expression (% of the activin A/Wnt3a control),[1]; no activin A,17%
B3,effect on SOX17 expression,[1]; [4],inhibited or had negligible effects on SOX17 expression
B4,effect on SOX17 expression,[1]; [4],inhibited or had negligible effects on SOX17 expression
